According to a melting point compilation (Tetko et al.; mined from patent text by program, amines drawn as free bases though some values may be those of a salt):

Structure (SMILES) | melting point [°C]
CNS(=O)(=O)NCCNC(=O)[C@@H](C[C@H](O)[C@H](C)NC(=O)OC(C)(C)C)C(C)C | 75 to 95
O=C1[C@H]2CCC[C@H]2N(C(=O)CBr)c2ccccc2N1Cc1ccccc1 (relative stereo) | 177 to 179
Cn1c(COc2ccc(CC3SC(=O)NC3=O)cc2)nc2ccc(OCCc3ccc(N)cc3)cc21 (stereo not drawn) | 184 to 188
O=c1c2ccc([N+](=O)[O-])cc2nc(CSc2ncnc3[nH]cnc23)n1-c1ccccc1Cl | 218
CCOC(=O)C1CCCCN1C(=O)/C=C/c1ccc(Sc2ccc3c(c2)OCCO3)c([N+](=O)[O-])c1 (stereo not drawn) | 74 to 75
Nc1c(F)cc(Cl)c2c1CCCO2 | 47 to 50
CCCCc1cccc(NC(=O)C=C(C)OC)c1 | 36
CC(C)c1nc(Sc2ccc(CCC(=O)O)cc2)c(C(=O)O)n1Cc1cc2c(cc1Cl)OCO2 | 198
CC(C(=O)N(C)c1ccccc1)n1c(-c2ccc(Cl)cc2)nc2cccnc21 (stereo not drawn) | 174 to 177
O=C(c1ccnc(Cl)c1)N1CC(c2ccc(F)cc2)C2(CCN(Cc3ccccc3)CC2)C1 (stereo not drawn) | 70 to 72
CS(=O)(=O)Nc1ccc(NC(=O)CN2CCC(Cc3ccc(F)cc3)CC2)cc1 | 169 to 171
CC(C)(C)NC1=NCCNC(c2ccccc2)=C1 | 93 to 97
Cc1ccc2c(c1)c1c(n2C(=O)c2ccc(Cl)cc2)CCC(C(=O)O)C1 (stereo not drawn) | 211 to 214
Cn1cnc(COc2nn3c(-c4ccon4)nnc3c3ccccc23)c1 | 191 to 192
COC(=O)c1ccc2c(c1)CN(c1c(F)cc3c(=O)c(C(=O)O)cn(-c4ccc(F)cc4)c3c1F)C2 | 236 to 240
COc1cn(-c2ccc(-c3ncco3)cc2F)nc(-c2ccnn2-c2ccccc2)c1=O | 223 to 225
CCOc1cc(OC)cc(OP(=O)(O)O)c1C(=O)C=Cc1ccc(OC)cc1 | 72 to 75
O=c1c2ccccc2nc(-c2sc(Nc3ccccc3)nc2-c2ccccc2)n1-c1ccccc1Cl | 210 to 212
CN(Cc1ccc(OC(F)(F)F)cc1)C(=O)OC[C@@]1(C)Cn2cc([N+](=O)[O-])nc2O1 | 123 to 124
FC(F)(F)c1cccnc1N1CCN(c2nc3ccc(Cl)cc3[nH]2)CC1 | 228 to 231
Cc1cccc(-c2ccccc2)c1C(=O)c1sc(Nc2ccc(N3CCOCC3)cc2)nc1N | 125 to 135
O=C(O)COc1ccc(Cl)cc1-c1ccc(S(=O)(=O)N2CCOCC2)c(C(F)(F)F)c1 | 208 to 209
COc1ccc(C(=O)O)cc1Nc1ccccc1 | 198 to 200

Structure (SMILES) | melting point [°C]
O=c1c2cc(F)ccc2[nH]c(=S)n1-c1ccccc1Cl | 295 to 297
Cc1nc(-c2ccc(Cl)cc2)sc1C(=O)NCc1ccc(OC(C)(C)C(=O)O)cc1 | 131
CC(=O)SC[C@H](NC(=O)C(C)C)C(=O)NCCSC(=O)C(C)(C)C | 112 to 114
CCCn1c(COCC)nc2c(N)nc3ccc(OCCCCCCNS(C)(=O)=O)cc3c21 | 164 to 167
CN1C(=O)c2c(Cl)cc(Cl)c(Cl)c2C1=O | 166 to 168
C[Si](C)(C)OC1(C(=O)c2ccccc2)CC2CCC(C1)N2CCCC(c1ccc(F)cc1)c1ccc(F)cc1 (stereo not drawn) | 111 to 113
CCCNC(=O)c1cccnc1Oc1cccnc1 | 55 to 56
CCS(=O)(=O)N(Cc1ccccc1)Cc1ccc2[nH]cc(CCCN3CCN(c4ncncc4OC)CC3)c2c1 | 73 to 75
COc1c(Cl)cc(-c2ccc(=O)[nH]n2)cc1Cl | 245 to 251
CC(C)c1cn(C)cc(-c2ccc(Cl)c(C(F)(F)F)c2)c1=O | 85 to 87
Oc1ccccc1-c1ccc2nonc2c1 | 166 to 169
O=C(NCCc1ccccc1)c1ccc(S(=O)(=O)Nc2ccccc2C(=O)O)cc1 | 242 to 244
N#Cc1c(N2CCN(C(=O)c3ccco3)CC2)c2cc(Cl)cnc2n(CC(=O)c2ccccc2)c1=O | 328
O=C1CCC(c2ccc(Cl)c(Cl)c2)c2ccccc2N1 (stereo not drawn) | 191 to 194
COc1nc(C)cnc1NS(=O)(=O)c1ccccc1-c1ccc(CC(C)(C)C(=O)O)cc1 | 202 to 204
C=Cc1cc([C@@H](C)NC(=O)C=Cc2ccc(C(C)(C)C)cc2)cc(F)c1NS(C)(=O)=O | 127 to 129
CC(C)(C)c1cccc(C(=O)O)c1 | 96 to 97
CCNc1cc(NS(=O)(=O)c2ccc(N)cc2)nc(N2CCC2)n1 | 260 to 262
Cn1c(=O)ccc2cc(COc3cccc(C4(C)CCOCC4)c3)ccc21 | 107 to 108
CCC(=O)NCCC1CCc2ccc3c(c21)NC(=O)CO3 (stereo not drawn) | 216 to 219
CC(C)(CC(=O)C(=O)Nc1ccc2c(c1)COC2=O)c1cccc(I)c1 | 160 to 161
CCc1ccc(S(=O)(=O)NC(C)(C)C)s1 | 38
COc1ccc(C(=O)O)c(Oc2ccc(C(F)(F)F)cc2NS(=O)(=O)c2cc(C(F)(F)F)cc(C(F)(F)F)c2)c1 | 182

Structure (SMILES) | melting point [°C]
CCN(CC)c1ccc(-c2cc(-c3ccc(C(=O)O)cc3)ccc2CCCNC2CCCC2)cc1C(C)(C)C | 255
COC(=O)Cc1ccc(OCC(C)NC(C)C(O)c2ccccc2)cc1 (stereo not drawn) | 122
CC(C(=O)O)c1ccc2cc(OCc3ccc4ccccc4n3)ccc2c1 (stereo not drawn) | 186 to 187
O=c1cc(Oc2ccccc2)c2cc(C(c3ccc(Cl)cc3)n3ccnc3)ccc2[nH]1 (stereo not drawn) | 233
O=C(Nc1cccc(S(=O)(=O)N2CCCC2)c1)c1cnn2c(C(F)(F)F)cc(-c3ccc(C(F)(F)F)cc3)nc12 | 241
CCCCCn1cc(C(=O)O)c(=O)c(I)c1C | 154
O=C(NCc1ccccc1)NC(Cc1ccccc1)C(=O)O (stereo not drawn) | 115 to 117
CON=Cc1ccc(N2C(=O)C(O)=C(C(=O)c3ccc(OC)cc3)C2c2ccccc2)cc1 (stereo not drawn) | 226 to 229
Cc1nc(SCC(N)=O)nc(C)c1Br | 175 to 177
CCN1CCc2ccc(Nc3ncc(Cl)c(NCCNS(C)(=O)=O)n3)cc2CC1 | 146
CN1CCN(c2cc3c(cc2F)c(=O)c(C(=O)O)cn3C2CC2)CC1c1ccsc1 (stereo not drawn) | 230
O=C(O)C1=Cc2cc(F)cc(Cl)c2OC1C(F)(F)F (stereo not drawn) | 240 to 241
CC(=O)NC[C@H]1CN(c2ccc(N3CC(=O)C3)c(F)c2)C(=O)O1 | 192 to 193
C#CCOc1ccc2c(c1)c(-c1ccc(C3CC3)cc1)nc(=O)n2Cc1ccccc1 | 112 to 113
CCC(=O)OC(C#N)C(C#N)c1ccc(OC)c(OC)c1 (stereo not drawn) | 92 to 94
NN(C(=O)c1ccc(Cl)c(S(N)(=O)=O)c1)c1ccc(C(=O)c2ccccc2)cc1[N+](=O)[O-] | 148
COc1ccc(-c2nc(C3=CCN(C)CC3)sc2-c2ccc(OC)cc2)cc1 | 131 to 132
CCCc1nc2c(N)nc3ccccc3c2n1CCC(=O)OCC | 156 to 157
Cn1c([N+](=O)[O-])cnc1-c1nc(Cl)c2ccccc2n1 | 178 to 181
COc1cc(C2CC(=O)OC(=O)C2)cc2c(C)c(C)oc12 | 194 to 195
CC(C)(C)COc1ccc(N)cc1Br | 45
CC1CC(=O)Oc2cc(O)ccc21 (stereo not drawn) | 109 to 110
